“Also recorded” adds a separate entry of the source.
Legend:
HCC-70 cells = assay: Cell survival assay, HCC-70; format: cell-based, human; details: HCC-70, increased MCT1 level
Procedure: (§1) Cell lines (5,000-20,000) were seeded in 96-well plates and treated with indicated amounts of 3-BrPA. After 3 days of treatment, CellTiter-Glo (Promega) and/or CyQuant (Invitrogen) were used to measure survival percentage for each concentration compared to untreated cells. FACS analysis with Annexin V and 7AAD staining was performed according to manufacturer's manual (BD Pharmingen).
(§2) 15 cell lines (BT-474, BT-549, CAK1-1, CAL-51, HCC-70, HS578T, JURKAT, MDA-MB-157, MDA-MB-231, MDA-MB-453, MDA-MB-468, PC-3, SK-BR-3, T47D, ZR-75-1) were treated with 3-BrPA (0-300 μM). After 3 days, cell viability was quantified via CellTiter-Glo assay and an IC50 from the resulting dose-response curve was interpolated using a nonlinear regression model. Transcriptome-wide normalized mRNA levels from gene expression profiling experiments performed on the Affymetrix Human Genome U133 Plus 2.0 chip were obtained from the CCLE for all 15 cell lines. The mRNA expression pattern across all 15 samples for each of the genes was then correlated with the IC50 values. Similar correlation analysis was performed using OCR/ECAR values for each cell line.

T47D cells = assay: Cell survival assay, T47D; format: cell-based, human; details: low MCT1 level
Procedure: as §1, §2

MDA-MB-453 cells = assay: Cell survival assay, MDA-MB-453; format: cell-based, human; details: MDA-MB-453, low MCT1 level
Procedure: as §1, §2

MDA-MB-231 cells = assay: 14C-3-BrPA uptake, parental and MCT1-overexpressing MDA-MB-231 cells; format: cell-based, human; details: MCT1-overexpressing vs parental MDA-MB-231
KBM7 cells = assay: Cell survival assay, wild type (parental) KBM7 cells; format: cell-based, human; details: 50 μM, 3 days of treatment
Procedure: (§3) A haploid cell genetic screen with 3-BrPA was performed using 100 million mutagenized KBM7 cells as described previously^29. Mutagenized haploid KBM-7 cells were exposed to 50 μM 3-BrPA for 3 weeks. Surviving clones were harvested and genomic DNA was isolated and insertions were amplified. The sequences flanking retroviral insertion sites were mapped to the human genome using inverse PCR followed by Ilium in a sequencing. Genomic regions with a high density of insertions were identified using the proximity index for a given insertion. Additionally, the statistical enrichment of insertions at a given locus in the selected population was calculated by comparing the number of inactivating insertions to those in the untreated control dataset via a Fisher's Exact Test. Individual clones were isolated among 50 different clones and genomic DNA for individually selected clones were isolated using a genomic DNA isolation kit (Qiagen). Genomic insertions were identified by inverse PCR and subsequent sequencing as described previously^24.
(§4) Cell lines (5,000-20,000) were seeded in 96-well plates and treated with indicated amounts of 3-BrPA. After 3 days of treatment, CellTiter-Glo (Promega) and/or CyQuant (Invitrogen) were used to measure survival percentage for each concentration compared to untreated cells. […]

[1] = system: MDA-MB-231 cells stably expressing MCT1; assay: Subcutaneous MDA-MB-231 xenografts in nude mice; format: in vivo; details: tumors with forced MCT1 expression vs untreated or GFP-expressing, 8 mg/kg, 3 weeks
Procedure: All animal studies and procedures were approved by the MIT Institutional Animal Care and Use Committee. 6-10 week old nude mice (Taconic) were used for generating all xenografts. In subcutaneous xenografts, mice were injected at two sites in the dorsal region, under isofluorane anesthesia with 100 μl/injection of tumor cell suspension in RPMI with 20% matrigel. 2.5 million MDA-MB-231 cells were injected. After 2 weeks, tumors were measured and mice were separated for PBS and 3-BrPA treatment (8 mg/kg). After 3 weeks, tumors were harvested, their dimensions were measured with a caliper and tumor volume estimated according to the formula: (0.5*W*L*L). Tumors were fixed in formalin for later processing.
To test if MCT1 expression can affect the sensitivity of established tumors to 3-BrPA, parental MDA-MB-231 cells, which express low levels of MCT1 (Supplemental FIG. 4), were injected subcutaneously into the left flanks of Nude mice, while MDA-MB-231 cells stably expressing MCT1 were injected into the contralateral flanks of the same animals. We allowed palpable subcutaneous tumors to form for 2 weeks before beginning 3-BrPA administration.

[2] = system: glyceraldehyde phosphate dehydrogenase (GAPDH); assay: LC-MS metabolite profiling, wild type relative to MCT1-null KBM7 cells; format: cell-based, human
Procedure: The bioenergetic profiles of KBM7 and MDA-MB-231 cells in response to 3-BrPA were determined using a Seahorse Bioscience XF24 Extracellular Flux Analyzer (Seahorse Bioscience). For the indicated experiments, 250,000 KBM7 or 40,000 MDA-MB-231 cells seeded in Seahorse tissue culture plates using unbuffered RPMI (10 mM Glucose). KBM7 cells were attached to the plates using CellTak (Clontech) one hour prior to the start of the experiment. For AUC (area under the curve) OCR and ECAR measurements, three consecutive readings were performed for each cell line. For experiments where 3-BrPA is used, after 3 consecutive readings, 50 μM 3-BrPA was injected through port A and ECAR and OCAR levels were measured. Lactate production was measured as described previously^50. For ATP assays, 20,000 cells were seeded and treated for 30 min with indicated amounts of 3-BrPA and ATP levels were determined using a luciferase-based assay (Promega). For metabolite measurements, 10 million wild type and MCT1 null KBM7 cells were cultured for 1 hour in presence of 50 μM 3-BrPA before metabolite extraction. Then, cells were rapidly washed three times with cold PBS, and then metabolites were extracted by addition of 80% ice-cold methanol followed after incubation on dry ice for 15 min. Endogenous metabolite profiles were obtained using LC-MS as described^51. Metabolite levels (n=3) were normalized to cell number.

MCT1-null cells = assay: 14C-3-BrPA uptake assay, MCT1-null KBM7 cells; format: cell-based, human; details: MCT1-null compared to parental KBM7 cells
Procedure: Wild type KBM7 or MCT1-null cells were seeded in HBSS and exposed for up to 20 minutes to 100 μM ^14C-labeled 3-BrPA (6.8 mCi/mmole) (Moravek) with or without competitor molecules like 3-BrPA, Pyruvate, L-Lactate and D-Lactate. Cells were washed with cold HBSS, lysed in a NaOH buffer, and uptake measured using a liquid scintillation counter.

MCT1-null KBM7 cells = assay: Cell survival assay, MCT1-null KBM7 clones; format: cell-based, human
Procedure: as §3, §4

BT-20 cells = assay: Cell survival assay, BT-20; format: cell-based, human
Procedure: as §1

[3] = wild type relative to MCT1-null KBM7, 50 μM, 1 hour, LC-MS

Compound: O=C(O)C(=O)CBr [3-BrPA, 3-bromopyruvic acid]
- sensitivity to 3-BrPA (HCC-70 cells): sensitive
- sensitivity to 3-BrPA (T47D cells): resistant
- sensitivity to 3-BrPA (MDA-MB-453 cells): resistant
- 14C-3-BrPA uptake with MCT1 expression (MDA-MB-231 cells): enhance
- sensitivity to 3-BrPA (cell death) (KBM7 cells): induce cell death accompanied by caspase-3 activation; also recorded: sensitive
- tumor size after 3-BrPA treatment [1]: significantly smaller
- intermediates of the pentose phosphate pathway ([2]; wild type KBM7, 50 μM, 1 hour, LC-MS): accumulated intermediates of the pentose phosphate pathway
- glycolytic intermediates after glyceraldehyde 3-phosphate [2, 3]: depletion of those that come after
- glycolytic intermediates preceding glyceraldehyde 3-phosphate [2, 3]: accumulation of the glycolytic intermediates that precede glyceraldehyde 3-phosphate
- cause of anti-glycolytic effects from metabolite profiling ([2]; wild type vs MCT1-null KBM7 metabolite profiling): strongly implicates GAPDH inhibition
- uptake of 14C-labeled 3-BrPA (MCT1-null cells): did not take up
- sensitivity to 3-BrPA after re-expression of MCT1 (MCT1-null KBM7 cells; MCT1-null KBM7 cells with exogenous MCT1): nearly completely restored their sensitivity
- resistance to 3-BrPA (MCT1-null KBM7 cells; MCT1-null KBM7 clones (Clone A and B), 50 μM, 3 days): completely resistant
- sensitivity to 3-BrPA (BT-20 cells; BT-20, increased MCT1 level): sensitive
- sensitivity to 3-BrPA with partial suppression of MCT1 by RNAi (BT-20 cells; BT-20 expressing shRNAs targeting MCT1): sufficient to confer resistance

Source: patent US20140142180A1, “METHODS OF TREATING TUMORS HAVING ELEVATED MCT1 EXPRESSION” (Whitehead Institute for Biomedical Research, priority 2012, published 2014)
